Each block holds one molecule with its values, some of them ahead of it.
Experiments:
[1] = Stability of phenylcreatine compared to creatine in blood serum (RP-HPLC peak areas); type: in vitro ADME, human
Description: The study of the stability of phenylcreatine and creatine in aqueous solution and in human blood was carried out as follows. For the preparation of solutions of test substances on an analytical balance the exactly weighed phenylcreatine and creatine were taken. The calculated amount of double-distilled water was added to them to obtain a concentration of 1 mg/ml. A part of the solution was diluted 10 times, and the sample was immediately analyzed. Further, that solution was kept at room temperature and after 3 hours the analysis was repeated. Further according to the method described in Dunnett, Harris & Orme (1991) Reverse phase ion-pairing high performance liquid chromatography of phosphocreatine, creatine and creatinine in equine muscle. Scand. J. Clin. Lab. Invest. 51, 137-141, page 139, aliquot (c), creatinine, creatine and phosphocreatine were removed from the samples used for obtaining of the blood serum for mixing, to obtain more accurate results. 1 ml of water or prepared according to the method above blood serum was added to 200 μl of a solution in water of initial substance with a concentration of 2-3 mg/ml, shaken and a sample of 200 μl volume was immediately taken and initial concentration was analyzed. Then the solution was placed in a vibration thermostat at 37° C. and an aliquot of 200 μl was taken in 0.5, 1 and 3 hours of incubation. 20 μl of a 10% solution of trichloroacetic acid was added to the selected sample and kept for 15 min at a temperature of minus 24° C., centrifuged at 6000 g for 5 min to precipitate the plasma proteins, supernatant was collected and its analysis was conducted. The study of the stability of phenylcreatine compared to creatine in an aqueous solution and blood was carried out using reversed-phase HPLC using a chromatographic system Agilent 1220 Infinity LC System (USA). To assess the stability of the analytes, the peak areas of the compounds were compared at the beginning of the experiment and at selected intervals (Table 2).

[2] = tested on: untrained subjects; conditions: creatine in combination with carbohydrates, 5 days before and 14 days after training; cited from earlier work
[3] = tested on: healthy men, having a sedentary lifestyle; conditions: loading protocol followed by 11-week maintenance; for 4-12 weeks; cited from earlier work
[4] = tested on: craniocerebral trauma in rats and mice; conditions: cited from earlier work
[5] = tested on: children and adults with craniocerebral trauma (CCT); conditions: six months, 400 mg/kg of body weight, cited from earlier work
[6] = tested on: adrenal arrhythmia (extrasystole) in rats; experiment: Model of adrenal arrhythmia (extrasystole) in rats; type: in vivo
From the text: One of the most important factors of arrhythmogenesis and the appearance of extrasystoles is the activation of the sympathoadrenal system. This circumstance determined the necessity of investigating phenylcreatine, proposed by the author of the present invention, on the model of adrenal arrhythmia (extrasystole) in rats (Kushakovsky M S, Heart arrhythmias: a guide for physicians, St. Petersburg, Hippocrates 1992).
In a control series of experiments, in all animals, 12 seconds after injection of epinephrine hydrochloride at a dose of […], polytopic ventricular extrasystole occurred in all animals. The number of ventricular extrasystoles before transition to tachycardia averaged 32±6. The duration of such arrhythmias was 80±21 seconds. In 50% of cases, it passed into the ventricular tachycardia. The duration of tachycardia was, on average, 86±12 seconds.
With the introduction of phenylcreatine, proposed by the present inventor in an amount of 20 mg per animal, half an hour before adrenaline hydrochloride, the number of ventricular extrasystoles was 12±4. The duration of the arrhythmia was 60±14 seconds.

[7] = tested on: supraventricular extrasystoles; experiment: Holter monitoring of supraventricular extrasystoles in a person taking phenylcreatine; type: in vivo, human; conditions: 2 mg per 1 kg per day for 14 days
Description: Additionally, the following study was carried out. Professional […] (15 years of experience in power triathlon). Supraventricular extrasystoles with a frequency of 4 times in 24 hours were observed according to holter monitoring. Extrasystoles were very poorly tolerated, there were complaints of discomfort and a decrease in the quality of life (neurosis-like condition). They took phenylcreatine in an amount of 2 mg per 1 kg per day, for 14 days.

[8] = tested on: male Wistar rats; experiment: Nootropic action in a shuttle maze, old rats; type: in vivo; conditions: old rats 25 months
Description: The experiments were performed on male Wistar rats born in September 2014 (experiments were conducted in November 2016). The animals were kept in standard plastic cells at an air temperature of 21-23° C. They received a balanced granular food and drinking water without restrictions. The work was carried out in compliance with the principles of the Helsinki Declaration on Humane Treatment of Animals.
Rats were divided into 2 groups. The rats of the first test group received 10 mg of phenylcreatine per animal daily for a month with drinking water. The rats of the second test group received water. As a control in the experiment, rats born in May 2016 (the third group, young rats) were used.
In the experiment, a shuttle maze was used to evaluate neuropsychiatric processes, primarily cognitive processes (Navakatikyan M A, Platonov L L, 1988). At the end of the labyrinth there was a food reinforcement (a piece of cheese with a mass of 200 mg).
The time of the experiment to find the exit from the labyrinth was 5 minutes. During the experiment, the time of passing the labyrinth, the number of rats reaching the end of the labyrinth, the number of vertical racks were recorded.

[9] = Negative effects in all the studies conducted; type: in vivo
From the text: It should also be noted that, with all the studies conducted, the negative effects of phenylcreatine according to the invention were not detected, which indicates its safety.

[10] = tested on: white mongrel mice; experiment: Endurance of mice in the treadmill test (running to complete exhaustion); type: in vivo
[11] = 0 h, initial, peak area relative to the beginning of the experiment

Stability in a blood serum [1, 11]: 100%
Stability in a blood serum ([1]; 0.5 h incubation at 37° C.): 98%
Stability in a blood serum ([1]; 1 h incubation at 37° C.): 67%
Stability in a blood serum ([1]; 3 h incubation at 37° C.): 52%
SMILES: CN(CC(=O)O)C(=N)N [creatine, 2-(methylguanine)-ethane acid]
Isokinetic muscle strength, greater than with carbohydrates only [2]: 10%
Isometric muscle strength, greater than with carbohydrates only [2]: 21%
Reduction of the glucose response in glucose tolerance test [3]: 11-22%
Subsequent injuries ([4]; dietary consumption of 1% creatine for four weeks): halved
Reduction of the severity of craniocerebral trauma ([4]; injections of creatine 3 g/kg for up to five days before trauma): 3-36%
Frequency of fatigue ([5]; reduced from 82.4%): 11.1%
Frequency of dizziness ([5]; reduced from 88.9 percent): 43.8%
Frequency of headaches ([5]; reduced from 93.8%): 11.1%

Stability in a blood serum [1, 11]: 100%
Stability in a blood serum ([1]; 0.5 h incubation at 37° C.): 100%
Stability in a blood serum ([1]; 1 h incubation at 37° C.): 99%
Stability in a blood serum ([1]; 3 h incubation at 37° C.): 96%
Concentration in the blood (in words) ([1]; for 3 hours): remained practically unchanged
Negative effects [9]: not detected
SMILES: N=C(N)N(CC(=O)O)Cc1ccccc1 [phenylcreatine, N-benzyl-N-carbamimidoylglycine]
Number of ventricular extrasystoles ([6]; 20 mg per animal half an hour before adrenaline hydrochloride, control 32±6): 12±4
Duration of the arrhythmia ([6]; 20 mg per animal half an hour before adrenaline hydrochloride, control 80±21): 60 ± 14 s
Transition to tachycardia ([6]; 20 mg per animal, control 50% of cases): no transition to tachycardia
Holter monitoring within 3 months after the course [7]: does not fix supraventricular extrasystoles
Extrasystoles after the course ([7]; before: 4 times in 24 hours): extrasystoles completely disappeared
Number of vertical rearings per minute ([8]; 10 mg per animal daily for a month with drinking water, untreated old rats 2±0.56): 1.2±0.44
The transit time of the labyrinth ([8]; 10 mg per animal daily for a month, untreated old rats 5±0.42): 2 ± 0.22 min
The number of rats reaching the end of the labyrinth in 5 minutes ([8]; 10 mg per animal daily for a month, untreated old rats 10%): 50%
Effect on endurance in the absence of sleep [10]: persisted even in the absence of sleep

Source: patent publication US20190367449A1, “PHENYLCREATINE, ITS USE AND METHOD FOR ITS PRODUCTION” (priority 2017, published 2019)
